According to patent publication US20190070128A1, “USE OF CANNABIDIVARIN IN THE TREATMENT OF AUTISM SPECTRUM DISORDER, ASSOCIATED DISORDERS AND SCHIZOPHRENIA” (GW Research Limited, priority 2016, published 2019):

Key:
[1] = test system: PCP-treated rats; test: novel object recognition test in sub-chronic PCP treated rats; assay type: in vivo, rat; conditions: PCP rats; CBDV 2, 10 or 20 mg/kg i.p., risperidone 0.1 mg/kg i.p., 60 min prior to testing
Procedure: (§1) Female hooded-Lister rats were used for this experiment. Rats were housed in groups of 5 under standard laboratory conditions under a 12 hr light: dark cycle, lights on at 0700 hr. Testing was carried out in the light phase.
(§2) Rats were randomly assigned to two treatment groups and treated with vehicle, n=20 (distilled water, i.p.) or Phencyclidine hydrochloride (PCP), n=100 (2 mg/kg, i.p. twice daily for 7-days). PCP was dissolved in distilled water. This was followed by a 7-day wash out period before the rats were tested following acute treatment with CBDV, risperidone or vehicle.
(§3) Risperidone (0.1 mg/kg) was dissolved in a minimum volume of acetic acid, made up to volume with distilled water and pH adjusted to 6 with 0.1M NaOH and administered via the i.p. route in a volume of 1 ml/kg, 60 min prior to testing.
(§4) CBDV at 2, 10 or 20 mg/kg was dissolved in 2:1:17 (Ethanol:Cremofor:Saline 0.9%) and administered via the i.p. route in a volume of 5 ml/kg, 60 min prior to testing.
Rats were allowed to habituate to the empty test box and the behavioural test room environment for 1 h on day 1. Prior to behavioural testing on day 2 rats are given a further 3 min habituation.
Following the 3 min habituation period, the rats are given two 3 min trials (T1 and T2) which are separated by a 1 min inter-trial interval in the home cage during which the objects are changed. Behaviour in all trials was recorded on video for subsequent blind scoring.
In this trial, the animals are allowed to explore two identical objects (A1 and A2) for 3 min.
In this trial, the animals explore a familiar object (A) from T1 and a novel object (B) for 3 min. The familiar object presented during T2 is a duplicate of the object presented in T1 in order to avoid any olfactory trails.
The object exploration is defined by animals licking, sniffing or touching the object with the forepaws whilst sniffing, but not leaning against, turning around, standing or sitting on the object. The exploration time (s) of each object (A, B, familiar and novel) in each trial are recorded using two stopwatches and the following factors are calculated: • Total exploration time of both objects in the acquisition trial (s). • Total exploration time of both objects in the retention trial (s). • Habituation of exploratory activity includes the exploration time, as measured by the number of lines crossed, for both the trials. • Discrimination index (DI), which is calculated as shown below: […]

[2] = test system: PCP-treated rats; test: social interaction test in sub-chronic PCP treated rats; assay type: in vivo, rat
Procedure: as §1, §2, §3, §4
The social interaction test is performed in an open-field comprising a square box made of Plexiglas (52×52×31 cm) placed 27 cm above the floor on a moveable trolley. The floor of the box is white with black gridlines forming 9 identical squares on it. All other walls are black. A video camera connected to a video recorder and monitor is positioned above the box. The object used for the test consists of a heavy structure made of metal that cannot be displaced by the animals.
The rats were habituated to the test environment and arena prior to the test day. Habituation consists of placing all rats from one cage together in the empty test arena for one hour for three days including the day before the test day.
Pairs of rats, weight matched (15-20 g) and unfamiliar to each other, receiving either no treatment (n=70 “conspecific” rats) or different treatments (PCP and Vehicle; n=10 “tested” rats or PCP+Drug; n=50 “tested” rats) were placed in the test arena together for 10 min and behaviour assessed as described below.
An inanimate object such as an unopened drinks can is also placed in the centre of the arena to measure any differences in interaction of the test animal with an unfamiliar animal as opposed to an unfamiliar object. After each 10 minute trial, the object and arena are cleaned with 10% alcohol in an attempt to remove traces of any olfactory cues. All testing is carried out under standard room illumination levels (70 cd/m2).
Behaviour in both trials was recorded on video for subsequent blind scoring. A behavioural scoring software program (Hindsight, Scientific programming services) is used to score the following parameters: • Investigative sniffing behaviour: sniffing the conspecific's snout or parts of the body including the anogenital region; • Following: rat moves after the conspecific i.e. a vehicle treated rat of the same species, around the arena; • Avoidances: actively turning away when approached by the conspecific animal; • Investigation of object: exploration of object placed in centre of the arena; and • Locomotor activity is recorded by counting the total number of sectors (i.e. lines) crossed by the test rat.

[3] = test system: PCP-treated rats; conditions: rat, in vivo; cited from earlier work

## Cc1nc2n(c(=O)c1CCN1CCC(c3noc4cc(F)ccc34)CC1)CCCC2 [risperidone, reference compound]
[1]
  preference between two identical objects, Trial 1 (acquisition): no real preference
[2]
  PCP effects on social interaction (sniffing, following, avoiding): reverse these effects in a statistically significant manner
[2]; risperidone 0.1 mg/kg, time increased over PCP alone group
  time spent following the other rat: not seen to be significant
[3]
  PCP-induced deficit in the novel object recognition test: attenuate
